Test results published in patent US20230382924A1, “MODULATORS OF CYSTIC FIBROSIS TRANSMEMBRANE CONDUCTANCE REGULATOR” (VERTEX PHARMACEUTICALS INCORPORATED, priority 2020, published 2023).
Like-named read-outs stand apart in the source and are kept apart here.

Target: CFTR (Homo sapiens, UniProt P13569)
Experiment: Membrane Potential Dye, Enteroid Assay A
Type: cell-based
Conditions: for EC50: read-out: Ent. A EC50
Outline: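 Signal is reported as % Activity relative to a triple CFTR modulator control (3 μM + 3 μM + 300 nM acute). Read-out: membrane potential fluorescence (20 μM methyl oxonol) monitored for 15 min after chloride-free stimulation. Dye loading took 25 min at room temperature in Bath 1 buffer containing CaCC blockers.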

CFTR, sequence (P13569 with tags, fused parts or gaps DEL508-508): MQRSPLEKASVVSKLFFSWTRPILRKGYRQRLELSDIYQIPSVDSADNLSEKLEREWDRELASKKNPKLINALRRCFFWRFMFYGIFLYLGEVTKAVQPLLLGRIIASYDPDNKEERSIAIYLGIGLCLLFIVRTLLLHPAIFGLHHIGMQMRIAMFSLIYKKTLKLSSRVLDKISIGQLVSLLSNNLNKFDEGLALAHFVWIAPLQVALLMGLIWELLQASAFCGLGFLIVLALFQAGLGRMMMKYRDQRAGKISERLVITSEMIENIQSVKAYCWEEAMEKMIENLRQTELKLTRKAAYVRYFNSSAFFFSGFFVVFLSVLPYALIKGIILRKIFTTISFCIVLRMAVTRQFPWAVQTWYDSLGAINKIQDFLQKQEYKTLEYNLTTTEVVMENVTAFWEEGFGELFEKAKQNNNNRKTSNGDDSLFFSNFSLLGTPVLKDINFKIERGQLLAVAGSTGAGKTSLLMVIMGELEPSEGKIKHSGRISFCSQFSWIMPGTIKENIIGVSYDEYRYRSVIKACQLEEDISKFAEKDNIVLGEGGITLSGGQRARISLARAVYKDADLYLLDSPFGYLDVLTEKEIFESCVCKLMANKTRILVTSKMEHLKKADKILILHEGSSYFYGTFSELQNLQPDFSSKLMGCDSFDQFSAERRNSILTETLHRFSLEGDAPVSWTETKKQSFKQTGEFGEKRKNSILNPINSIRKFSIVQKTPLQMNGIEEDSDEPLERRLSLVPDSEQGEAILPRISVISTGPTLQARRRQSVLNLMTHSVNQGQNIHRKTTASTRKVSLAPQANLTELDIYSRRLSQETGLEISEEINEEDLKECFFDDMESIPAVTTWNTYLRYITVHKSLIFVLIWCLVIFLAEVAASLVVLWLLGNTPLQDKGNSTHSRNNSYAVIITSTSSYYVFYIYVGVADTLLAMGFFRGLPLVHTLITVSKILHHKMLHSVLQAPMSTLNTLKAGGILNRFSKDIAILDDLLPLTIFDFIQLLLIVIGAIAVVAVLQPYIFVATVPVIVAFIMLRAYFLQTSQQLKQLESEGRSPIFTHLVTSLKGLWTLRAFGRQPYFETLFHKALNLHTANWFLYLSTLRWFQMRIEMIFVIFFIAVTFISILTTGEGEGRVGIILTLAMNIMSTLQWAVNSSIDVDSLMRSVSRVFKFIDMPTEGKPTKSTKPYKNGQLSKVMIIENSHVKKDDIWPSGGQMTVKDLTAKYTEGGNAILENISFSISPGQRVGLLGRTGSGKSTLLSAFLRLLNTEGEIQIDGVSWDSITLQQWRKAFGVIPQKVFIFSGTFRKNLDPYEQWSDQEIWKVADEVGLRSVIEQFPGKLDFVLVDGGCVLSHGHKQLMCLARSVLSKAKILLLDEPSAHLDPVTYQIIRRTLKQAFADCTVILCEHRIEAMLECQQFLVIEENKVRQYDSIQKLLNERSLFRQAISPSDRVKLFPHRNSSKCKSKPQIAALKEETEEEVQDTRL

| Ent. A Max Activity (Enteroid Assay A) | EC50 (Enteroid Assay A) | SMILES | other results |
| --- | --- | --- | --- |
|  |  | Cc1cccc(C)c1-c1cc2nc(n1)NS(=O)(=O)c1cccc(c1)C(=O)NCC(c1ccc(C34CC(C3)C4)cc1)O2 (stereo not shown) [Compound 398] | Ent. A Max Activity (Table 9): +++ (+++ is >60%); EC50 (Table 9): < 1 µM |
|  |  | Cc1cccc(C)c1-c1cc2nc(n1)NS(=O)(=O)c1cccc(c1)C(=O)NCC(c1ccc(C(F)(F)F)cc1)O2 (stereo not shown) [Compound 403] | EC50 (Table 8): < 1 µM |
|  |  | Cc1cccc(C2CNC(=O)c3cccc(c3)S(=O)(=O)Nc3nc(cc(-c4c(C)cccc4C)n3)O2)c1 (stereo not shown) [Compound 404] | Ent. A Max Activity (Table 8): +++ (+++ is >60%); EC50 (Table 8): < 1 µM |
|  |  | Cc1ccc(C2CNC(=O)c3cccc(c3)S(=O)(=O)Nc3nc(cc(-c4c(C)cccc4C)n3)O2)cc1 (stereo not shown) [Compound 406] | Ent. A Max Activity (Table 8): + (+ is <30%) |
|  |  | Cc1ccc(C2CNC(=O)c3cccc(c3)S(=O)(=O)Nc3nc(cc(-c4c(C)cccc4C)n3)O2)cc1 (stereo not shown) [Compound 407] | Ent. A Max Activity (Table 8): +++ (+++ is >60%); EC50 (Table 8): < 1 µM |
|  |  | Cc1cccc(C)c1-c1cc2nc(n1)NS(=O)(=O)c1cccc(c1)C(=O)NCC(CN1CCCCC1)O2 (stereo not shown) [Compound 410] | EC50 (Table 8): 3 to 30 µM |
|  |  | Cc1cccc(C)c1-c1cc2nc(n1)NS(=O)(=O)c1cncc(c1)C(=O)N[C@H](CC(C)C)CO2 [Compound 413] | Ent. A Max Activity (Table 8): +++ (+++ is >60%); EC50 (Table 8): 1 to 3 µM |
| ++ (++ is 30-60%) | < 1 µM | Cc1cccc(C)c1-c1cc2nc(n1)NS(=O)(=O)c1cccc(c1)C(=O)NCC1(CCN(Cc3cccc(OC(F)(F)F)c3F)CC1)CO2 [Compound 431] |  |
| ++ (++ is 30-60%) | 3 to 30 µM | Cc1cccc(C)c1-c1cc2nc(n1)NS(=O)(=O)c1cccc(c1)C(=O)NCC1(CCN(Cc3ccc(NC(=O)OC(C)(C)C)nc3)CC1)CO2 [Compound 433] |  |
| ++ (++ is 30-60%) | 3 to 30 µM | COC(=O)c1cc(CN2CCC3(CC2)CNC(=O)c2cccc(c2)S(=O)(=O)Nc2nc(cc(-c4c(C)cccc4C)n2)OC3)ccc1F [Compound 437] |  |
| ++ (++ is 30-60%) | 1 to 3 µM | COc1cc(C)c(CN2CCC3(CC2)CNC(=O)c2cccc(c2)S(=O)(=O)Nc2nc(cc(-c4c(C)cccc4C)n2)OC3)cc1C [Compound 438] |  |
| ++ (++ is 30-60%) | 3 to 30 µM | Cc1cccc(C)c1-c1cc2nc(n1)NS(=O)(=O)c1cccc(c1)C(=O)NCC1(CCN(C[C@H]3COC(C)(C)N3C(=O)OC(C)(C)C)CC1)CO2 [Compound 439] |  |
| +++ (+++ is >600%) | < 1 µM | Cc1cccc(C)c1-c1cc2nc(n1)NS(=O)(=O)c1cccc(c1)C(=O)NCC1(CCN(CCC(C)CC(C)(C)C)CC1)CO2 (stereo not shown) [Compound 441] |  |
|  | 3 to 30 µM | Cc1cccc(C)c1-c1cc2nc(n1)NS(=O)(=O)c1cccc(c1)C(=O)NCC1(CCN(Cc3ccccc3)CC1)CO2 [Compound 442] |  |
| ++ (++ is 30-60%) |  | Cc1cccc(C)c1-c1cc2nc(n1)NS(=O)(=O)c1cccc(c1)C(=O)NCC1(CCN(CCC(C)(C)C)CC1)CO2 [Compound 443] |  |
| ++ (++ is 30-60%) | 3 to 30 µM | Cc1cccc(C)c1-c1cc2nc(n1)NS(=O)(=O)c1cccc(c1)C(=O)NCC1(CCN(CCc3ccccc3)CC1)CO2 [Compound 444] |  |
| ++ (++ is 30-60%) | 3 to 30 µM | Cc1cccc(C)c1-c1cc2nc(n1)NS(=O)(=O)c1cccc(c1)C(=O)NCC1(CCN(CCOCc3ccccc3)CC1)CO2 [Compound 445] |  |

| Ent. A Max Activity (Enteroid Assay A) | EC50 (Enteroid Assay A) | SMILES | other results |
| --- | --- | --- | --- |
| ++ (++ is 30-60%) |  | CCCC(NC(=O)OC(C)(C)C)C(=O)N1CCC2(CC1)CNC(=O)c1cccc(c1)S(=O)(=O)Nc1nc(cc(-c3c(C)cccc3C)n1)OC2 (stereo not shown) [Compound 449] |  |
| ++ (++ is 30-60%) | 3 to 30 µM | Cc1cccc(C)c1-c1cc2nc(n1)NS(=O)(=O)c1cccc(c1)C(=O)NCC1(CCN(C(=O)C(CC(C)C)NC(=O)OC(C)(C)C)CC1)CO2 (stereo not shown) [Compound 450] |  |
| ++ (++ is 30-60%) | 1 to 3 µM | Cc1cccc(C)c1-c1cc2nc(n1)NS(=O)(=O)c1cccc(c1)C(=O)NCC1(CCN(C(=O)c3cc4ccccc4n3CC#N)CC1)CO2 [Compound 452] |  |
| ++ (++ is 30-60%) | 1 to 3 µM | Cc1cccc(C)c1-c1cc2nc(n1)NS(=O)(=O)c1cccc(c1)C(=O)NCC1(CCN(C(=O)c3c(C)c4ccccc4n3C)CC1)CO2 [Compound 455] |  |
| ++ (++ is 30-60%) | 3 to 30 µM | Cc1cccc(C)c1-c1cc2nc(n1)NS(=O)(=O)c1cccc(c1)C(=O)NCC1(CCN(C(=O)C3CCCCN3Cc3ccc(F)cc3)CC1)CO2 (stereo not shown) [Compound 456] |  |
| ++ (++ is 30-60%) | 1 to 3 µM | COc1cccc(-c2cccc(C(=O)N3CCC4(CC3)CNC(=O)c3cccc(c3)S(=O)(=O)Nc3nc(cc(-c5c(C)cccc5C)n3)OC4)c2)c1 [Compound 459] |  |
| ++ (++ is 30-60%) |  | Cc1nc(C(F)(F)F)c(C(=O)N2CCC3(CC2)CNC(=O)c2cccc(c2)S(=O)(=O)Nc2nc(cc(-c4c(C)cccc4C)n2)OC3)s1 [Compound 460] |  |
| ++ (++ is 30-60%) |  | Cc1cccc(C)c1-c1cc2nc(n1)NS(=O)(=O)c1cccc(c1)C(=O)NCC1(CCN(C(=O)c3cc4c(cc3O)CCCC4)CC1)CO2 [Compound 462] |  |
| +++ (+++ is >600%) | 1 to 3 µM | Cc1cccc(C)c1-c1cc2nc(n1)NS(=O)(=O)c1cccc(c1)C(=O)NCC1(CCN(C(=O)C3(c4ccc5c(c4)CCC5)CC3)CC1)CO2 [Compound 464] |  |
| ++ (++ is 30-60%) | 1 to 3 µM | Cc1cccc(C)c1-c1cc2nc(n1)NS(=O)(=O)c1cccc(c1)C(=O)NCC1(CCN(C(=O)[C@H]3[C@H](c4ccccc4)C3(C)C)CC1)CO2 [Compound 465] |  |
| ++ (++ is 30-60%) | 1 to 3 µM | Cc1cccc(C)c1-c1cc2nc(n1)NS(=O)(=O)c1cccc(c1)C(=O)NCC1(CCN(C(=O)CO[C@@H]3C[C@H](C)CC[C@H]3C(C)C)CC1)CO2 [Compound 468] |  |
| ++ (++ is 30-60%) | 3 to 30 µM | CCC[C@H](NC(=O)OC(C)(C)C)C(=O)N1CCC2(CC1)CNC(=O)c1cccc(c1)S(=O)(=O)Nc1nc(cc(-c3c(C)cccc3C)n1)OC2 [Compound 469] |  |
| ++ (++ is 30-60%) |  | Cc1cccc(C)c1-c1cc2nc(n1)NS(=O)(=O)c1cccc(c1)C(=O)NCC1(CCN(C(=O)C3CC[C@@H](NC(=O)OC(C)(C)C)C3)CC1)CO2 (stereo partly shown) [Compound 470] |  |
| ++ (++ is 30-60%) |  | Cc1cccc(C)c1-c1cc2nc(n1)NS(=O)(=O)c1cccc(c1)C(=O)NCC1(CCN(C(=O)C3CSCCN3C(=O)OC(C)(C)C)CC1)CO2 (stereo not shown) [Compound 471] |  |
| ++ (++ is 30-60%) | 3 to 30 µM | Cc1cccc(C)c1-c1cc2nc(n1)NS(=O)(=O)c1cccc(c1)C(=O)NCC1(CCN(C(=O)[C@]3(C)CCCN3C(=O)OC(C)(C)C)CC1)CO2 [Compound 472] |  |
|  | 3 to 30 µM | Cc1cccc(C)c1-c1cc2nc(n1)NS(=O)(=O)c1cccc(c1)C(=O)NCC1(CCN(C(=O)c3ccccc3)CC1)CO2 [Compound 474] |  |
| ++ (++ is 30-60%) |  | Cc1cccc(C)c1-c1cc2nc(n1)NS(=O)(=O)c1cccc(c1)C(=O)NCC1(CCN(C(=O)CC(C)(C)C)CC1)CO2 [Compound 481] |  |

| SMILES | Ent. A Max Activity (Enteroid Assay A) | EC50 (Enteroid Assay A) | other results |
| --- | --- | --- | --- |
| COc1ccc2c(c1)c(C(=O)N1CCC3(CC1)CNC(=O)c1cccc(c1)S(=O)(=O)Nc1nc(cc(-c4c(C)cccc4C)n1)OC3)c(C)n2C1CC1 [Compound 451] | ++ (++ is 30-60%) | 3 to 30 µM |  |
